The source made the active and inactive calls. The rule behind the calls is not given here.
The molecules below were run on Mus musculus (assay: Anticonvulsant activity in albino CF1 mouse assessed as protection against maximal electroshock-induced seizures at 100 mg/kg, ip measured after 0.25 hr). Details: not given.
Type: functional, organism-based
Parameters: dose 100 mg/kg

| SMILES | Activity |
| --- | --- |
| O=C1NC(=O)[C@@H]2CCCN2[C@H]1c1cc(F)cc(F)c1 | Active |
| O=C1NC(=O)[C@@H](c2cccc(C(F)(F)F)c2)N2CCCC[C@@H]12 | inactive |

These molecules were tested on Mus musculus (assay: Anticonvulsant activity in albino CF1 mouse assessed as protection against maximal electroshock-induced seizures at 100 mg/kg, ip measured after 0.5 hr). Details: not given.
Type: functional, organism-based
Parameters: dose 100 mg/kg

| SMILES | Activity |
| --- | --- |
| O=C1NC(=O)[C@@H]2CCCN2[C@H]1c1cc(F)cc(F)c1 | inactive |

Each molecule was assayed on Mus musculus (assay: Anticonvulsant activity in albino CF1 mouse assessed as protection against maximal electroshock-induced seizures at 100 mg/kg, ip measured after 1 hr). Details: not given.
Type: functional, organism-based
Parameters: dose 100 mg/kg

| SMILES | Activity |
| --- | --- |
| O=C1NC(=O)[C@@H]2CCCN2[C@H]1c1cc(F)cc(F)c1 | inactive |
| O=C1NC(=O)[C@@H](c2cccc(C(F)(F)F)c2)N2CCCC[C@@H]12 | inactive |

Each molecule was assayed on Mus musculus (assay: Anticonvulsant activity in albino CF1 mouse assessed as protection against maximal electroshock-induced seizures at 100 mg/kg, ip measured after 4 hrs). Details: not given.
Type: functional, organism-based
Parameters: dose 100 mg/kg

| SMILES | Activity |
| --- | --- |
| O=C1NC(=O)[C@@H]2CCCN2[C@H]1c1cc(F)cc(F)c1 | inactive |

These molecules were tested on Mus musculus (assay: Anticonvulsant activity in albino CF1 mouse assessed as protection against subcutaneous metrazol-induced seizures at 100 mg/kg, ip measured after 0.25 hr). Details: not given.
Type: functional, organism-based
Parameters: dose 100 mg/kg

| SMILES | Activity |
| --- | --- |
| O=C1NC(=O)[C@@H]2CCCN2[C@H]1c1cc(F)cc(F)c1 | Active |

The molecules below were run on Mus musculus (assay: Anticonvulsant activity in albino CF1 mouse assessed as protection against subcutaneous metrazol-induced seizures at 100 mg/kg, ip measured after 0.5 hr). Details: not given.
Type: functional, organism-based
Parameters: dose 100 mg/kg

| SMILES | Activity |
| --- | --- |
| O=C1NC(=O)[C@@H]2CCCN2[C@H]1c1cc(F)cc(F)c1 | Active |

The molecules below were run on Mus musculus (assay: Anticonvulsant activity in albino CF1 mouse assessed as protection against subcutaneous metrazol-induced seizures at 100 mg/kg, ip measured after 1 hr). Details: not given.
Type: functional, organism-based
Parameters: dose 100 mg/kg

| SMILES | Activity |
| --- | --- |
| O=C1NC(=O)[C@@H]2CCCN2[C@H]1c1cc(F)cc(F)c1 | inactive |

These molecules were tested on Mus musculus (assay: Anticonvulsant activity in albino CF1 mouse assessed as protection against subcutaneous metrazol-induced seizures at 100 mg/kg, ip measured after 4 hrs). Details: not given.
Type: functional, organism-based
Parameters: dose 100 mg/kg

| SMILES | Activity |
| --- | --- |
| O=C1NC(=O)[C@@H]2CCCN2[C@H]1c1cc(F)cc(F)c1 | inactive |

The molecules below were run on Mus musculus (assay: Neurotoxicity in albino CF1 mouse at 100 mg/kg, ip measured after 0.25 hr). Details: in vivo.
Type: toxicity, organism-based
Parameters: dose 100 mg/kg, route intraperitoneal

| SMILES | Activity |
| --- | --- |
| O=C1NC(=O)[C@@H]2CCCN2[C@H]1c1cc(F)cc(F)c1 | Non-toxic |
| O=C1NC(=O)[C@@H](c2cccc(C(F)(F)F)c2)N2CCCC[C@@H]12 | Non-toxic |

Each molecule was assayed on Mus musculus (assay: Neurotoxicity in albino CF1 mouse at 100 mg/kg, ip measured after 0.5 hr). Details: in vivo.
Type: toxicity, organism-based
Parameters: dose 100 mg/kg, route intraperitoneal

| SMILES | Activity |
| --- | --- |
| O=C1NC(=O)[C@@H]2CCCN2[C@H]1c1cc(F)cc(F)c1 | Non-toxic |

What follows are molecules tested on Mus musculus (assay: Neurotoxicity in albino CF1 mouse at 100 mg/kg, ip measured after 1 hr). Details: in vivo.
Type: toxicity, organism-based
Parameters: dose 100 mg/kg, route intraperitoneal

| SMILES | Activity |
| --- | --- |
| O=C1NC(=O)[C@@H]2CCCN2[C@H]1c1cc(F)cc(F)c1 | Non-toxic |
| O=C1NC(=O)[C@@H](c2cccc(C(F)(F)F)c2)N2CCCC[C@@H]12 | Non-toxic |

What follows are molecules tested on Mus musculus (assay: Neurotoxicity in albino CF1 mouse at 100 mg/kg, ip measured after 4 hrs). Details: in vivo.
Type: toxicity, organism-based
Parameters: dose 100 mg/kg, route intraperitoneal

| SMILES | Activity |
| --- | --- |
| O=C1NC(=O)[C@@H]2CCCN2[C@H]1c1cc(F)cc(F)c1 | Non-toxic |

What follows are molecules tested on Mus musculus (assay: Anticonvulsant activity in albino CF1 mouse assessed as protection against 32 mA current-induced seizures at 100 mg/kg, ip measured after 0.25 hr). Details: not given.
Type: functional, organism-based
Parameters: dose 100 mg/kg

| SMILES | Activity |
| --- | --- |
| O=C1NC(=O)[C@@H]2CCCN2[C@H]1c1cc(F)cc(F)c1 | Active |
| O=C1NC(=O)[C@@H](c2cccc(C(F)(F)F)c2)N2CCCC[C@@H]12 | inactive |

What follows are molecules tested on Mus musculus (assay: Anticonvulsant activity in albino CF1 mouse assessed as protection against 32 mA current-induced seizures at 100 mg/kg, ip measured after 0.5 hr). Details: not given.
Type: functional, organism-based
Parameters: dose 100 mg/kg

| SMILES | Activity |
| --- | --- |
| O=C1NC(=O)[C@@H]2CCCN2[C@H]1c1cc(F)cc(F)c1 | Active |

What follows are molecules tested on Mus musculus (assay: Anticonvulsant activity in albino CF1 mouse assessed as protection against 32 mA current-induced seizures at 100 mg/kg, ip measured after 1 hr). Details: not given.
Type: functional, organism-based
Parameters: dose 100 mg/kg

| SMILES | Activity |
| --- | --- |
| O=C1NC(=O)[C@@H]2CCCN2[C@H]1c1cc(F)cc(F)c1 | inactive |
| O=C1NC(=O)[C@@H](c2cccc(C(F)(F)F)c2)N2CCCC[C@@H]12 | inactive |

These molecules were tested on Mus musculus (assay: Anticonvulsant activity in albino CF1 mouse assessed as protection against 32 mA current-induced seizures at 100 mg/kg, ip measured after 2 hrs). Details: not given.
Type: functional, organism-based
Parameters: dose 100 mg/kg

| SMILES | Activity |
| --- | --- |
| O=C1NC(=O)[C@@H]2CCCN2[C@H]1c1cc(F)cc(F)c1 | inactive |

What follows are molecules tested on Mus musculus (assay: Anticonvulsant activity in albino CF1 mouse assessed as protection against 32 mA current-induced seizures at 100 mg/kg, ip measured after 4 hrs). Details: not given.
Type: functional, organism-based
Parameters: dose 100 mg/kg

| SMILES | Activity |
| --- | --- |
| O=C1NC(=O)[C@@H]2CCCN2[C@H]1c1cc(F)cc(F)c1 | inactive |

These molecules were tested on Mus musculus (assay: Neurotoxicity in 32 mA current-induced seizure albino CF1 mouse model at 100 mg/kg, ip measured after 0.25 hr). Details: in vivo.
Type: toxicity, organism-based
Parameters: dose 100 mg/kg, route intraperitoneal

| SMILES | Activity |
| --- | --- |
| O=C1NC(=O)[C@@H]2CCCN2[C@H]1c1cc(F)cc(F)c1 | Non-toxic |
| O=C1NC(=O)[C@@H](c2cccc(C(F)(F)F)c2)N2CCCC[C@@H]12 | Non-toxic |

Each molecule was assayed on Mus musculus (assay: Neurotoxicity in 32 mA current-induced seizure albino CF1 mouse model at 100 mg/kg, ip measured after 0.5 hr). Details: in vivo.
Type: toxicity, organism-based
Parameters: dose 100 mg/kg, route intraperitoneal

| SMILES | Activity |
| --- | --- |
| O=C1NC(=O)[C@@H]2CCCN2[C@H]1c1cc(F)cc(F)c1 | Non-toxic |

Each molecule was assayed on Mus musculus (assay: Neurotoxicity in 32 mA current-induced seizure albino CF1 mouse model at 100 mg/kg, ip measured after 1 hr). Details: in vivo.
Type: toxicity, organism-based
Parameters: dose 100 mg/kg, route intraperitoneal

| SMILES | Activity |
| --- | --- |
| O=C1NC(=O)[C@@H]2CCCN2[C@H]1c1cc(F)cc(F)c1 | Non-toxic |
| O=C1NC(=O)[C@@H](c2cccc(C(F)(F)F)c2)N2CCCC[C@@H]12 | Non-toxic |

The molecules below were run on Mus musculus (assay: Neurotoxicity in 32 mA current-induced seizure albino CF1 mouse model at 100 mg/kg, ip measured after 2 hrs). Details: in vivo.
Type: toxicity, organism-based
Parameters: dose 100 mg/kg, route intraperitoneal

| SMILES | Activity |
| --- | --- |
| O=C1NC(=O)[C@@H]2CCCN2[C@H]1c1cc(F)cc(F)c1 | Non-toxic |

The molecules below were run on Mus musculus (assay: Neurotoxicity in 32 mA current-induced seizure albino CF1 mouse model at 100 mg/kg, ip measured after 4 hrs). Details: in vivo.
Type: toxicity, organism-based
Parameters: dose 100 mg/kg, route intraperitoneal

| SMILES | Activity |
| --- | --- |
| O=C1NC(=O)[C@@H]2CCCN2[C@H]1c1cc(F)cc(F)c1 | Non-toxic |

From ChEMBL document CHEMBL3352057, “Novel fluorinated pyrrolo[1,2-a]pyrazine-2,6-dione derivatives: synthesis and anticonvulsant evaluation in animal models of epilepsy” (Bioorg Med Chem, 2014)
